Results published in ChEMBL document CHEMBL3885861, “Open TG-GATES”.

Organism: Rattus norvegicus
Test: Open TG-GATES - Regimen: Daily Repeat
Assay type: toxicity, organism-based, Sprague-Dawley
Design: regimen Daily Repeat, gender Male, age 6 weeks
Conditions: in vivo, po, 0 mg/kg, route gavage, dose level Control; for APTT / Bas / Eos / Fbg / Hb / Ht / Lym / MCH / MCHC / MCV / Mono / Neu / PT / Plat / RBC / Ret / WBC: tissue Blood; for KIDNEY_L / KIDNEY_R / KIDNEY_TOTAL: tissue Kidney; for LIVER: tissue Liver; for A/G / ALP / ALT / AST / BUN / CRE / Ca / Cl / DBIL / GLC / IP / K / LDH / Na / PL / RALB / TBIL / TC / TG / TP / gamma-GTP: tissue Plasma

Compound: CC(=O)Nc1ccc2c(c1)Cc1ccccc1-2 [2-ACETYLAMINOFLUORENE]
- TERMINAL_BW (72 h, time 3 day): 245.3 g
- APTT (72 h, time 3 day): 19.9 s
- Bas (72 h, time 3 day): 1%
- Eos (72 h, time 3 day): 1.2%
- Fbg (72 h, time 3 day): 227.2 mg/dL
- Hb (72 h, time 3 day): 14 g/dL
- Ht (72 h, time 3 day): 40.4%
- Lym (72 h, time 3 day): 82.2%
- MCH (72 h, time 3 day): 21.5 pg
- MCHC (72 h, time 3 day): 34.6%
- MCV (72 h, time 3 day): 62.3 fL
- Mono (72 h, time 3 day): 3%
- Neu (72 h, time 3 day): 12.6%
- PT (72 h, time 3 day): 11.3 s
- Plat (72 h, time 3 day): 127 x10_4/uL
- RBC (72 h, time 3 day): 648.4 x10_4/ul
- Ret (72 h, time 3 day): 5.8%
- WBC (72 h, time 3 day): 105.6 x10_2/uL
- KIDNEY_L (72 h, time 3 day): 1.1 g
- KIDNEY_R (72 h, time 3 day): 1.1 g
- KIDNEY_TOTAL (72 h, time 3 day): 2.2 g
- LIVER (72 h, time 3 day): 12.2 g
- A/G (72 h, time 3 day): 1.6
- ALP (72 h, time 3 day): 913.6 IU/L
- ALT (72 h, time 3 day): 38.2 IU/L
- AST (72 h, time 3 day): 73.2 IU/L
- BUN (72 h, time 3 day): 15.2 mg/dL
- CRE (72 h, time 3 day): 0.5 mg/dL
- Ca (72 h, time 3 day): 11 mg/dL
- Cl (72 h, time 3 day): 101.8 meq/L
- DBIL (72 h, time 3 day): 0.1 mg/dL
- GLC (72 h, time 3 day): 208.4 mg/dL
- IP (72 h, time 3 day): 8 mg/dL
- K (72 h, time 3 day): 4.1 meq/L
- LDH (72 h, time 3 day): 217.2 IU/L
- Na (72 h, time 3 day): 141.2 meq/L
- PL (72 h, time 3 day): 163 mg/dL
- RALB (72 h, time 3 day): 3.6 g/dL
- TBIL (72 h, time 3 day): 0.2 mg/dL
- TC (72 h, time 3 day): 81.8 mg/dL
- TG (72 h, time 3 day): 104.6 mg/dL
- TP (72 h, time 3 day): 5.8 g/dL
- gamma-GTP (72 h, time 3 day): 1.2 IU/L
- TERMINAL_BW ([…], time 7 day): 278.1 g
- TERMINAL_BW ([…], time 14 day): 334.5 g
- TERMINAL_BW ([…], time 28 day): 417 g
- APTT ([…], time 7 day): 19.7 s
- Bas ([…], time 7 day): 0.4%
- Eos ([…], time 7 day): 1%
- Fbg ([…], time 7 day): 242 mg/dL
- Hb ([…], time 7 day): 14.1 g/dL
- Ht ([…], time 7 day): 39.9%
- Lym ([…], time 7 day): 82.8%
- MCH ([…], time 7 day): 21.9 pg
- MCHC ([…], time 7 day): 35.2%
- MCV ([…], time 7 day): 62.1 fL
- Mono ([…], time 7 day): 2.4%
- Neu ([…], time 7 day): 13%
- PT ([…], time 7 day): 11.7 s
- Plat ([…], time 7 day): 138.4 x10_4/uL
- RBC ([…], time 7 day): 643 x10_4/ul
- Ret ([…], time 7 day): 5.6%
- WBC ([…], time 7 day): 114.7 x10_2/uL
- APTT ([…], time 14 day): 21 s
- Bas ([…], time 14 day): 0.8%
- Eos ([…], time 14 day): 1%
- Fbg ([…], time 14 day): 225.8 mg/dL
- Hb ([…], time 14 day): 14.7 g/dL
- Ht ([…], time 14 day): 42.3%
- Lym ([…], time 14 day): 82.8%
- MCH ([…], time 14 day): 20.5 pg
- MCHC ([…], time 14 day): 34.7%
- MCV ([…], time 14 day): 59 fL
- Mono ([…], time 14 day): 2.2%
- Neu ([…], time 14 day): 12.6%
- PT ([…], time 14 day): 11.8 s
- Plat ([…], time 14 day): 117.3 x10_4/uL
- RBC ([…], time 14 day): 716.4 x10_4/ul
- Ret ([…], time 14 day): 4%
- WBC ([…], time 14 day): 96.8 x10_2/uL
- APTT ([…], time 28 day): 20.8 s
- Bas ([…], time 28 day): 0.8%
- Eos ([…], time 28 day): 1%
- Fbg ([…], time 28 day): 215.8 mg/dL
- Hb ([…], time 28 day): 14.9 g/dL
- Ht ([…], time 28 day): 43%
- Lym ([…], time 28 day): 82.4%
- MCH ([…], time 28 day): 19.8 pg
- MCHC ([…], time 28 day): 34.7%
- MCV ([…], time 28 day): 57.1 fL
- Mono ([…], time 28 day): 2.2%
- Neu ([…], time 28 day): 13.2%
- PT ([…], time 28 day): 11.6 s
- Plat ([…], time 28 day): 104.4 x10_4/uL
- RBC ([…], time 28 day): 752.2 x10_4/ul
- Ret ([…], time 28 day): 2.6%
- WBC ([…], time 28 day): 122.5 x10_2/uL
- KIDNEY_L ([…], time 7 day): 1.2 g
- KIDNEY_R ([…], time 7 day): 1.2 g
- KIDNEY_TOTAL ([…], time 7 day): 2.4 g
- KIDNEY_L ([…], time 14 day): 1.3 g
- KIDNEY_R ([…], time 14 day): 1.3 g
- KIDNEY_TOTAL ([…], time 14 day): 2.6 g
- KIDNEY_L ([…], time 28 day): 1.5 g
- KIDNEY_R ([…], time 28 day): 1.5 g
- KIDNEY_TOTAL ([…], time 28 day): 3 g
- LIVER ([…], time 7 day): 12.4 g
- LIVER ([…], time 14 day): 14.9 g
- LIVER ([…], time 28 day): 16.7 g
- A/G ([…], time 7 day): 1.4
- ALP ([…], time 7 day): 914.8 IU/L
- ALT ([…], time 7 day): 35.8 IU/L
- AST ([…], time 7 day): 65 IU/L
- BUN ([…], time 7 day): 13.6 mg/dL
- CRE ([…], time 7 day): 0.4 mg/dL
- Ca ([…], time 7 day): 10.7 mg/dL
- Cl ([…], time 7 day): 103.2 meq/L
- DBIL ([…], time 7 day): 0.076 mg/dL
- GLC ([…], time 7 day): 201.2 mg/dL
- IP ([…], time 7 day): 7.5 mg/dL
- K ([…], time 7 day): 4.1 meq/L
- LDH ([…], time 7 day): 188 IU/L
- Na ([…], time 7 day): 140.4 meq/L
- PL ([…], time 7 day): 136.4 mg/dL
- RALB ([…], time 7 day): 3.4 g/dL
- TBIL ([…], time 7 day): 0.1 mg/dL
- TC ([…], time 7 day): 64.8 mg/dL
- TG ([…], time 7 day): 96.2 mg/dL
- TP ([…], time 7 day): 5.7 g/dL
- gamma-GTP ([…], time 7 day): 1.4 IU/L
- A/G ([…], time 14 day): 1.4
- ALP ([…], time 14 day): 880.2 IU/L
- ALT ([…], time 14 day): 35 IU/L
- AST ([…], time 14 day): 64.4 IU/L
- BUN ([…], time 14 day): 15.4 mg/dL
- CRE ([…], time 14 day): 0.5 mg/dL
- Ca ([…], time 14 day): 10.7 mg/dL
- Cl ([…], time 14 day): 103.4 meq/L
- DBIL ([…], time 14 day): 0.1 mg/dL
- GLC ([…], time 14 day): 196.2 mg/dL
- IP ([…], time 14 day): 7.3 mg/dL
- K ([…], time 14 day): 4.1 meq/L
- LDH ([…], time 14 day): 169.6 IU/L
- Na ([…], time 14 day): 141.6 meq/L
- PL ([…], time 14 day): 143.2 mg/dL
- RALB ([…], time 14 day): 3.5 g/dL
- TBIL ([…], time 14 day): 0.2 mg/dL
- TC ([…], time 14 day): 69.6 mg/dL
- TG ([…], time 14 day): 138 mg/dL
- TP ([…], time 14 day): 5.9 g/dL
- gamma-GTP ([…], time 14 day): 1.2 IU/L
- A/G ([…], time 28 day): 1.4
- ALP ([…], time 28 day): 611.4 IU/L
- ALT ([…], time 28 day): 30.8 IU/L
- AST ([…], time 28 day): 61.8 IU/L
- BUN ([…], time 28 day): 19 mg/dL
- CRE ([…], time 28 day): 0.4 mg/dL
- Ca ([…], time 28 day): 10.4 mg/dL
- Cl ([…], time 28 day): 102.4 meq/L
- DBIL ([…], time 28 day): 0.092 mg/dL
- GLC ([…], time 28 day): 265 mg/dL
- IP ([…], time 28 day): 7.2 mg/dL
- K ([…], time 28 day): 3.8 meq/L
- LDH ([…], time 28 day): 194.4 IU/L
- Na ([…], time 28 day): 140.4 meq/L
- PL ([…], time 28 day): 143.4 mg/dL
- RALB ([…], time 28 day): 3.4 g/dL
- TBIL ([…], time 28 day): 0.1 mg/dL
- TC ([…], time 28 day): 69.8 mg/dL
- TG ([…], time 28 day): 107.8 mg/dL
- TP ([…], time 28 day): 5.8 g/dL
- gamma-GTP ([…], time 28 day): 1 IU/L
